Test results: the NIST ThermoML archive (doi:10.1021/je100078w)
± gives the expanded uncertainty stated by the source.

Legend:
[1] = 101.33 kPa, Liquid
[2] = wn = mass fraction of the nth substance listed; settings: 101 kPa, Liquid

CCCCn1cc[n+](C)c1.F[B-](F)(F)F [1-butyl-3-methylimidazolium tetrafluoroborate]
[1]
Settings | mass density [kg/m3] | viscosity [mPa·s]
303.15 K | 1195.7 ± 1.2 | 68.9 ± 1.3
313.15 K | 1188.62 ± 1.1 | 44.73 ± 0.61
323.15 K | 1181.59 ± 1.1 | 30.81 ± 0.43
333.15 K | 1174.6 ± 1.1 | 22.28 ± 0.31
343.15 K | 1167.67 ± 1.1 | 16.75 ± 0.24

C[NH+](CCO)CCO.C[NH+](CCO)CCO.C[NH+](CCO)CCO.O=P([O-])([O-])[O-] [2-hydroxy-N-(2-hydroxyethyl)-N-methylethanaminium phosphate] + O
[2]
Settings | mass density, 303.15 K [kg/m3] | mass density, 313.15 K [kg/m3] | mass density, 323.15 K [kg/m3] | mass density, 333.15 K [kg/m3] | mass density, 343.15 K [kg/m3] | viscosity, 303.15 K [mPa·s] | viscosity, 313.15 K [mPa·s] | viscosity, 323.15 K [mPa·s] | viscosity, 333.15 K [mPa·s] | viscosity, 343.15 K [mPa·s]
w1 = 0.3001 | – | – | – | – | – | 2.63 ± 0.068 | 2.125 ± 0.059 | 1.805 ± 0.052 | 1.594 ± 0.048 | 1.455 ± 0.046
w1 = 0.3007 | 1075.32 ± 1.8 | 1070.31 ± 1.8 | 1063.44 ± 1.8 | 1055.39 ± 1.7 | 1045.38 ± 1.6 | – | – | – | – | –

CN(CCO)CCO.CN(CCO)CCO.O=S(=O)(O)O [2,2'-(methylimino)diethanol sulfate (2:1)] + O
[2]
Settings | mass density, 303.15 K [kg/m3] | mass density, 313.15 K [kg/m3] | mass density, 323.15 K [kg/m3] | mass density, 333.15 K [kg/m3] | mass density, 343.15 K [kg/m3] | viscosity, 303.15 K [mPa·s] | viscosity, 313.15 K [mPa·s] | viscosity, 323.15 K [mPa·s] | viscosity, 333.15 K [mPa·s] | viscosity, 343.15 K [mPa·s]
w1 = 0.2999 | 1091.95 ± 1.9 | 1087.46 ± 1.9 | 1082.24 ± 1.9 | 1075.89 ± 1.8 | 1068.32 ± 1.8 | – | – | – | – | –
w1 = 0.3001 | – | – | – | – | – | 1.795 ± 0.052 | 1.446 ± 0.046 | 1.196 ± 0.041 | 1.012 ± 0.038 | 0.872 ± 0.035

F[B-](F)(F)F.[NH3+]CCO [2-hydroxyethanaminium tetrafluoroborate] + O
[2], w1 = 0.3004
Settings | mass density [kg/m3] | viscosity [mPa·s]
303.15 K | 1116.48 ± 2.1 | 1.007 ± 0.038
313.15 K | 1110.85 ± 2.1 | 0.8573 ± 0.035
323.15 K | 1104.95 ± 2 | 0.7412 ± 0.033
333.15 K | 1098.99 ± 2 | 0.6743 ± 0.032
343.15 K | 1093.41 ± 1.9 | 0.5896 ± 0.03

C[NH+](CCO)CCO.F[B-](F)(F)F + O
[2]
Settings | mass density, 303.15 K [kg/m3] | mass density, 313.15 K [kg/m3] | mass density, 323.15 K [kg/m3] | mass density, 333.15 K [kg/m3] | mass density, 343.15 K [kg/m3] | viscosity, 303.15 K [mPa·s] | viscosity, 313.15 K [mPa·s] | viscosity, 323.15 K [mPa·s] | viscosity, 333.15 K [mPa·s] | viscosity, 343.15 K [mPa·s]
w1 = 0.3001 | 1084.71 ± 1.9 | 1075.11 ± 1.8 | 1067.02 ± 1.8 | 1058.01 ± 1.7 | 1047.87 ± 1.7 | – | – | – | – | –
w2 = 0.3001 | – | – | – | – | – | 1.245 ± 0.042 | 1.041 ± 0.038 | 0.8831 ± 0.035 | 0.7874 ± 0.034 | 0.7196 ± 0.032

OCCN(CCO)CCO [triethanolamine] + CCCCn1cc[n+](C)c1.F[B-](F)(F)F
[2]
Settings | mass density, 303.15 K [kg/m3] | mass density, 313.15 K [kg/m3] | mass density, 323.15 K [kg/m3] | mass density, 333.15 K [kg/m3] | mass density, 343.15 K [kg/m3] | viscosity, 303.15 K [mPa·s] | viscosity, 313.15 K [mPa·s] | viscosity, 323.15 K [mPa·s] | viscosity, 333.15 K [mPa·s] | viscosity, 343.15 K [mPa·s]
w1 = 0.1998 | 1175.8 ± 4.5 | 1168.63 ± 4.4 | 1161.5 ± 4.2 | 1154.44 ± 4.1 | 1147.42 ± 4 | 57.94 ± 1.2 | 35.89 ± 1.2 | 24.02 ± 0.82 | 17.13 ± 0.59 | 12.82 ± 0.45
w1 = 0.3987 | 1161.1 ± 4.2 | 1154.41 ± 4.1 | 1146.93 ± 4 | 1139.88 ± 3.9 | 1132.87 ± 3.8 | 69.54 ± 3.3 | 39.71 ± 1.3 | 25.08 ± 0.85 | 17.08 ± 0.59 | 12.32 ± 0.44
w1 = 0.5005 | 1150.08 ± 4 | 1142.89 ± 3.9 | 1135.48 ± 3.8 | 1128.12 ± 3.7 | 1120.99 ± 3.6 | 86.62 ± 6.7 | 47.22 ± 1.6 | 28.82 ± 0.97 | 19.11 ± 0.66 | 13.48 ± 0.48
w1 = 0.6 | 1146.42 ± 4 | 1139.61 ± 3.9 | 1132.76 ± 3.8 | 1125.89 ± 3.6 | 1119 ± 3.5 | 116.5 ± 14 | 60.67 ± 1.7 | 36.1 ± 1.2 | 23.35 ± 0.8 | 16.14 ± 0.56
w1 = 0.7999 | 1129.56 ± 3.7 | 1123.21 ± 3.6 | 1116.73 ± 3.5 | 1110.16 ± 3.4 | 1103.54 ± 3.3 | 186.3 ± 34 | 99.43 ± 9.6 | 54.02 ± 0.66 | 33.63 ± 1.1 | 22.33 ± 0.76
w1 = 1 | 1114.43 ± 3.4 | 1108.34 ± 3.3 | 1102.23 ± 3.2 | 1095.96 ± 3.1 | 1089.6 ± 3 | 398.2 ± 120 | 195.9 ± 37 | 103.6 ± 11 | 60.81 ± 1.7 | 37.94 ± 1.3

C[NH+](CCO)CCO.F[B-](F)(F)F
[1]
Settings | mass density [kg/m3] | viscosity [mPa·s]
303.15 K | 1425.56 ± 3.2 | 208.8 ± 16
313.15 K | 1418.1 ± 3.2 | 117.7 ± 5.6
323.15 K | 1410.63 ± 3.2 | 71.79 ± 1.6
333.15 K | 1403.2 ± 3.1 | 46.85 ± 0.76
343.15 K | 1395.85 ± 3.1 | 32.35 ± 0.53
